Test results published in the supplement of paper PMC11061612.

Experiments:
Assay in all cases: combination Emax (second highest fraction inhibited in the dose matrix, 72 h); higher = more inhibition; extreme values may be limits of the assay
[1] = test system: LOUCY (T-Lymphoblastic Leukemia)
Method in brief: (§1)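 Cell lines grown in DMEM/F12 or RPMI with 10% FBS were plated in 1536-well plates and held 24 hours at 37°C, 5% CO2 before 72 hours of exposure to two-drug dose matrices, with DMSO typically at 0.2%. CellTiter-Glo 2.0 luminescence gave viability, which was converted to inhibition. Vehicle wells were set to 0 and blank wells to 1. Combination Emax is the second-highest inhibition in the matrix, and Bliss excess is the observed combination effect minus the expected EA + EB − EA·EB, where EA and EB are the single-agent effects.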

[2] = test system: AsPC-1 (Pancreatic Carcinoma)
Method in brief: as §1

[3] = test system: Calu-6 (Non-Small Cell Lung Carcinoma)
Method in brief: as §1

[4] = test system: 786-0 (Kidney Carcinoma)
Method in brief: as §1

[5] = test system: SJRH30 (Rhabdomyosarcoma)
Method in brief: as §1

[6] = test system: EB-3 (Burkitt's Lymphoma)
Method in brief: as §1

[7] = test system: NCI-H1755 (Lung Adenocarcinoma)
Method in brief: as §1

[8] = test system: NCI-H1155 (Non-Small Cell Lung Carcinoma)
Method in brief: as §1

[9] = test system: RERF-LC-KJ (Lung Adenocarcinoma)
Method in brief: as §1

[10] = test system: Caov-3 (Ovarian Carcinoma)
Method in brief: as §1

[11] = test system: HSC-3 (Oral Cavity Carcinoma)
Method in brief: as §1

[12] = test system: NCI-H1563 (Lung Adenocarcinoma)
Method in brief: as §1

[13] = test system: Becker (Low Grade Glioma)
Method in brief: as §1

[14] = test system: CHL-1 (Melanoma)
Method in brief: as §1

[15] = test system: RT4 (Bladder Carcinoma)
Method in brief: as §1

[16] = test system: AN3-CA (Endometrial Carcinoma)
Method in brief: as §1

[17] = test system: BALL-1 (B-Lymphoblastic Leukemia)
Method in brief: as §1

[18] = test system: KYSE-70 (Esophageal Squamous Cell Carcinoma)
Method in brief: as §1

[19] = test system: RMG-I (Ovarian Carcinoma)
Method in brief: as §1

[20] = test system: OV-90 (Ovarian Carcinoma)
Method in brief: as §1

Compound | combination Emax [1] | combination Emax [2] | combination Emax [3] | combination Emax [4] | combination Emax [5] | combination Emax [6] | combination Emax [7] | combination Emax [8] | combination Emax [9] | combination Emax [10] | combination Emax [11] | combination Emax [12] | combination Emax [13] | combination Emax [14] | combination Emax [15] | combination Emax [16] | combination Emax [17] | combination Emax [18] | combination Emax [19] | combination Emax [20]
CN(CCO)CC[C@H](CSc1ccccc1)Nc1ccc(S(=O)(=O)NC(=O)c2ccc(N3CCC([C@@H](O)c4ccccc4-c4ccc(Cl)cc4)CC3)cc2)cc1S(=O)(=O)C(F)(F)F [AZD4320] + Cc1cc2ncnn2cc1Nc1ncc2c(n1)n(C1CCOCC1)c(=O)n2C [AZD7648] (first compound max 1 µM, 7x7, partner max 10 µM) | 1 | 0.566 | 0.59 | 0.138 | 0.147 | 0.334 | 0.286 | 0.772 | 0.288 | 0.551 | 0.151 | 0.35 | 0.124 | 0.177 | 0.355 | 0.445 | 1 | 0.132 | 0.826 | 0.6
COc1cccc(OCCCN)c1-c1cc(Nc2cnc(C#N)cn2)n[nH]1 [Prexasertib] + C=CCn1c(=O)c2cnc(Nc3ccc(N4CCN(C)CC4)cc3)nc2n1-c1cccc(C(C)(C)O)n1 [AZD1775] (first compound max 1 µM, partner max 1 µM) | 1 | 0.41 | 0.806 | 0.957 | 0.97 | 0.818 | 0.926 | 0.963 | 0.435 | 0.798 | 0.847 | 0.482 | 0.733 | 0.845 | 0.742 | 0.954 | 0.997 | 0.777 | 0.727 | 0.628
Cc1c2c(nn1C)CSCc1cc(n(C)n1)CSc1cc(c3ccccc3c1)OCCCc1c(C(=O)O)n(C)c3c-2c(Cl)ccc13 [AZD5991] + C1CN(CCC1(C(=O)N[C@@H](CCO)C2=CC=C(C=C2)Cl)N)C3=NC=NC4=C3C=CN4 [Capivasertib] (first compound max 1 µM, 7x7, partner max 3 µM) | 0.926 | 0.161 | 0.192 | 0.44 | 0.669 | 0.299 | 0.338 | 0.525 | 0.495 | 0.307 | 0.728 | 0.774 | 0.308 | 0.275 | 0.22 | 0.951 | 0.65 | 0.246 | 0.236 | 0.241
CN(C)CCCOc1ccc(-c2ccc3ncc4c(c3c2)n(C2CCOCC2)c(=O)n4C)cn1 [AZD0156] + CCN(CCO)CCCOc1ccc2c(Nc3cc(CC(=O)Nc4cccc(F)c4)[nH]n3)ncnc2c1 [AZD2811] (first compound max 1 µM, 7x7, partner max 1 µM) | 0.929 | 0.0981 | 0.328 | 0.118 | 0.125 | 0.425 | 0.475 | 0.377 | 0.359 | 0.809 | 0.308 | 0.311 | 0.0601 | 0.194 | 0.349 | 0.27 | 0.634 | 0.161 | 0.093 | 0.143
CC(=O)Nc1cccc(-n2c(=O)n(C3CC3)c(=O)c3c(Nc4ccc(I)cc4F)n(C)c(=O)c(C)c32)c1 [Trametinib] + Cc1nc(-c2cn3c(n2)-c2ccc(-c4cnn(C(C)(C)C(N)=O)c4)cc2OCC3)n(C(C)C)n1 [Taselisib] (first compound max 1 µM, 7x7, partner max 10 µM) | 0.527 | 0.608 | 0.987 | 0.613 | 0.947 | 0.373 | 0.978 | 0.348 | 0.727 | 0.836 | 0.986 | 0.793 | 0.678 | 0.638 | 0.734 | 0.997 | 0.532 | 0.804 | 0.485 | 0.834
CN(CCO)CC[C@H](CSc1ccccc1)Nc1ccc(S(=O)(=O)NC(=O)c2ccc(N3CCC([C@@H](O)c4ccccc4-c4ccc(Cl)cc4)CC3)cc2)cc1S(=O)(=O)C(F)(F)F [AZD4320] + CN(C)CCCOc1ccc(-c2ccc3ncc4c(c3c2)n(C2CCOCC2)c(=O)n4C)cn1 [AZD0156] (first compound max 1 µM, 7x7, partner max 1 µM) | 1 | 0.602 | 0.395 | 0.0619 | 0.147 | 0.387 | 0.229 | 0.717 | 0.267 | 0.541 | 0.145 | 0.321 | 0.0869 | 0.113 | 0.266 | 0.27 | 1 | 0.115 | 0.79 | 0.5
COc1cccc(OCCCN)c1-c1cc(Nc2cnc(C#N)cn2)n[nH]1 [Prexasertib] + CCc1c2c(nc3ccc(O)cc13)-c1cc3c(c(=O)n1C2)COC(=O)[C@]3(O)CC [SN-38] (first compound max 1 µM, 7x7, partner max 0.3 µM) | 1 | 0.41 | 0.862 | 0.938 | 0.984 | 0.87 | 0.952 | 0.993 | 0.903 | 0.984 | 0.937 | 0.629 | 0.816 | 0.877 | 0.894 | 0.946 | 1 | 0.869 | 0.505 | 0.573
CC1(C)CCC(CN2CCN(c3ccc(C(=O)NS(=O)(=O)c4ccc(NCC5CCOCC5)c([N+](=O)[O-])c4)c(Oc4cnc5[nH]ccc5c4)c3)CC2)=C(c2ccc(Cl)cc2)C1 [Venetoclax] + COc1cc(Nc2ncc3c(n2)-c2ccc(Cl)cc2C(c2c(F)cccc2OC)=NC3)ccc1C(=O)O [Alisertib] (first compound max 1 µM, 7x7, partner max 10 µM) | 1 | 0.136 | 0.584 | 0.37 | 0.423 | 0.418 | 0.66 | 0.809 | 0.48 | 0.838 | 0.61 | 0.466 | 0.547 | 0.778 | 0.791 | 0.9 | 1 | 0.392 | 0.371 | 0.248
Cc1c2c(nn1C)CSCc1cc(n(C)n1)CSc1cc(c3ccccc3c1)OCCCc1c(C(=O)O)n(C)c3c-2c(Cl)ccc13 [AZD5991] + C[C@@H]1COCCN1C2=NC(=NC(=C2)C3(CC3)[S@](=N)(=O)C)C4=C5C=CNC5=NC=C4 [AZD6738] (first compound max 1 µM, 7x7, partner max 10 µM) | 0.993 | 0.292 | 0.822 | 0.748 | 0.939 | 0.604 | 0.854 | 0.849 | 0.465 | 0.763 | 0.798 | 0.774 | 0.632 | 0.906 | 0.536 | 0.823 | 1 | 0.379 | 0.544 | 0.51
CC1(C)CCC(CN2CCN(c3ccc(C(=O)NS(=O)(=O)c4ccc(NCC5CCOCC5)c([N+](=O)[O-])c4)c(Oc4cnc5[nH]ccc5c4)c3)CC2)=C(c2ccc(Cl)cc2)C1 [Venetoclax] + C=CCn1c(=O)c2cnc(Nc3ccc(N4CCN(C)CC4)cc3)nc2n1-c1cccc(C(C)(C)O)n1 [AZD1775] (first compound max 1 µM, partner max 1 µM) | 1 | 0.282 | 0.787 | 0.582 | 0.9 | 0.674 | 0.846 | 0.223 | 0.283 | 0.801 | 0.492 | 0.371 | 0.76 | 0.891 | 0.372 | 0.446 | 1 | 0.604 | 0.57 | 0.512
COc1cc2c(cc1OCCCCCOc1cc3c(cc1OC)C(=O)N1C=C(C)C[C@H]1C=N3)N=C[C@@H]1CC(C)=CN1C2=O [SG3199] + O=C(c1cc(Cc2n[nH]c(=O)c3ccccc23)ccc1F)N1CCN(C(=O)C2CC2)CC1 [Olaparib] (first compound max 0.001 µM, 7x7, partner max 10 µM) | 0.12 | 0.02 | 0.186 | 0.0509 | 0.122 | 0.0944 | 0.202 | 0.263 | 0.148 | 0.202 | 0.157 | 0.173 | 0.0512 | 0.092 | 0.169 | 0.138 | 0.845 | 0.0678 | 0.114 | 0.098
CC1(C)CCC(CN2CCN(c3ccc(C(=O)NS(=O)(=O)c4ccc(NCC5CCOCC5)c([N+](=O)[O-])c4)c(Oc4cnc5[nH]ccc5c4)c3)CC2)=C(c2ccc(Cl)cc2)C1 [Venetoclax] + Cc1cc2ncnn2cc1Nc1ncc2c(n1)n(C1CCOCC1)c(=O)n2C [AZD7648] (first compound max 1 µM, 7x7, partner max 10 µM) | 1 | 0.246 | 0.275 | 0.136 | 0.187 | 0.477 | 0.534 | 0.164 | 0.357 | 0.528 | 0.207 | 0.391 | 0.19 | 0.215 | 0.357 | 0.411 | 1 | 0.169 | 0.312 | 0.298
